Experimental findings from patent US20250042861A1, “TETRAHYDROPYRIDAZINES, COMPOSITIONS COMPRISING THEM AND USES THEREOF” (Novo Nordisk A/S, priority 2021, published 2025) are described below.

As usually defined, the EC50 is the concentration that produces a half-maximal response.

In test [1] the target is T1, human CB1 receptor (Homo sapiens, UniProt P21554).
T1 construct: expressed in transfected cells; host or cells: HEK293
Nature of the test: bioSensAll β-arrestin plasma membrane (PM) translocation BRET biosensor (+GRK2) assay in transfected HEK293 cells, inhibition of CP-55,940 response. To be noted: HEK293 cells transfected with hCB1 and β-arrestin PM translocation biosensor (+GRK2), test compound then EC75 of CP-55,940 (100 nM), overnight incubation, read-out: CB1 wt βarr2 EC50. In kind it is cell-based. The procedure: (§1) Using polyethylenimine (PEI) transfection agent, HEK293 cells were transfected in suspension with the human CB1 or CB1 b receptor and one of the following bioSensAll® assays: GAPL-Gi2, or β-arrestin plasma membrane (PM) translocation biosensor (+GRK2). Cells were directly seeded in 96-well plates immediately following transfection.
(§2) Cells were incubated with coelenterazine (luciferase substrate) and different test compounds prior to the measurement of BRET signals.
(§3) Used in this project are i) Ga plasma membrane (GAPL) biosensors and the ii) β-arrestin plasma membrane translocation biosensor. • i) GAPL sensors are used to monitor the activation of heterotrimeric G proteins at the plasma membrane upon receptor stimulation. Specifically, these multimolecular BRET sensors detect the plasma membrane recruitment of proteins that interact with active Ga subunits in a G protein family-selective manner. G protein activation following receptor stimulation generally leads to an increase in the BRET signal. • ii) The multimolecular β-arrestin membrane recruitment biosensors allow for real-time spatio-temporal monitoring of β-arrestin 1 and β-arrestin 2 following GPCR activation. Specifically, these β-arrestin sensors were designed to detect the recruitment of proteins to the plasma membrane β-arrestin PM) with localization to compartment resulting in an increased BRET signal. c) Cell Culture Conditions HEK293 cells were maintained in Dulbecco's Modified Eagle Medium (DMEM) (Wisent; cat #319-030-CL: without sodium pyruvate, with 4.5 g/L glucose, without L-glutamine) supplemented with 1% penicillin-streptomycin (Wisent; cat #450-201-EL) and 2 or 10% fetal bovine serum (Wisent cat #090150).
(§4) HEK293 cells were co-transfected with hCB1 or hCB1b and one of the above-listed bioSensAll® assays. For each transfection condition: • the total amount of transfected DNA was kept constant at 1 μg per mL of cell culture to be transfected; whenever necessary, salmon sperm DNA (Invitrogen, cat #15632011) was used as ‘carrier’ DNA to supplement plasmid DNA (i.e., biosensor and receptor); • the PEI (polyethylenimine 25 kDa linear, PolyScience, cat #23966) to DNA ratio (ug:ug) was fixed at 3:1. Transfections were Carried Out as Follows: • DNA and PEI were first diluted separately in 150 mM NaCl. The volume of the diluent in each tube corresponds to 5% of the cell culture volume to be transfected. • Once DNA and PEI were diluted, the PEI-containing solution was added to the DNA solution and the DNA/PEI mixture immediately vortexed for 5 seconds. • The DNA/PEI mixture was incubated for at least 20 minutes at room temperature to allow for the formation of DNA/PEI complexes. • During the incubation, HEK293 cells were detached, counted and re-suspended in culture medium (composition specified above). • At the end of the incubation period, the DNA/PEI mixture was added to the cells. • Cells were finally distributed in 96-well plates (White Opaque 96-well/Microplates, Greiner, cat #655083 or CulturPlate-96, White Opaque 96-well Microplate, PerkinElmer, cat #6005688) at a density of 30 000 cells per well.
(§5) • Using 450-Select TS Biotek plate washer, culture medium was aspirated and replaced with 100 μl of Hank's Balanced Salt Solution buffer (HBSS) (Wisent, cat #319-067CL: without red phenol; with sodium bicarbonate, with calcium and magnesium, with HEPES) per well. This process was performed a total of two times (i.e., 2 washes). • After the washing step, the HP D300 digital dispenser (Tecan) was used to inject increasing doses (12) of test compounds (ranging from 0-600 nM) to wells. […]

Test [2] concerns the target T1, human CB1 receptor. Briefly: bioSensAll GAPL-Gi2 BRET biosensor assay in transfected HEK293 cells, inhibition of CP-55,940 response. In kind it is cell-based. The settings on record: HEK293 cells transfected with hCB1 and GAPL-Gi2 biosensor, test compound then EC75 of CP-55,940 (0.1 nM), overnight incubation, read-out: CB1 wt Gi2 EC50. The procedure:
as §1, §2, §3, §4, §5
In general terms: In BRET a luciferase serves as donor, and the signal depends on an acceptor being close.

T1 sequence (P21554 whole entry): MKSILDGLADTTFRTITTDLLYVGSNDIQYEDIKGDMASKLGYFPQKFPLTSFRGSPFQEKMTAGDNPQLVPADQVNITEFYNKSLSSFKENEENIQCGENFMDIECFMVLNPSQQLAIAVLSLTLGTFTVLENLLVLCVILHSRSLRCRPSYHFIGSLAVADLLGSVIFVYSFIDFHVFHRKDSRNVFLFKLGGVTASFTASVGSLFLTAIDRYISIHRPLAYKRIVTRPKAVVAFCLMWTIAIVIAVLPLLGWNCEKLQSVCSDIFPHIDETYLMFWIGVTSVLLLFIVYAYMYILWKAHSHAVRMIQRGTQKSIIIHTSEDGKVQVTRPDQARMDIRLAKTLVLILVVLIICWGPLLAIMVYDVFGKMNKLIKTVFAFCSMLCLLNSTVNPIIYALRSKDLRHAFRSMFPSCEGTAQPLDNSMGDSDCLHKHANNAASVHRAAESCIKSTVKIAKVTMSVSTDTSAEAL

With `CC(=O)N/C(N)=N/C(=N/S(=O)(=O)N1CCCC(F)(F)C1)N1CCC(c2ccccc2)C(c2ccc(Cl)cc2)=N1` (single isomer, unassigned) [Compound 5 Isomer 1, N-[(E)-N′-[(Z)-C-[6-(4-chlorophenyl)-5-phenyl-4,5-dihydro-3H-pyridazin-2-yl]-N-[(3,3-difluoro-1-piperidyl)sulfonyl]carbonimidoyl]carbamimidoyl]acetamide], the 50% effective concentration (EC50) in test [1] is 400 nM; in test [2], 150 nM.

As for `CC(=O)N/C(N)=N\C(=N\S(=O)(=O)c1ccc(C(F)(F)F)cc1)N1CCC(c2ccccc2)C(c2ccc(Cl)cc2)=N1` (single isomer, unassigned) [Compound 7 Isomer 1, N-[(E)-N′-[(Z)-C-[6-(4-chlorophenyl)-5-phenyl-4,5-dihydro-3H-pyridazin-2-yl]-N-[4-(trifluoromethyl)phenyl]sulfonyl-carbonimidoyl]carbamimidoyl]acetamide], the figures for the 50% effective concentration (EC50) in test [1] and in test [2] were 580 nM and 200 nM, respectively.

For `CC(=O)NC(N)=NC(=NS(=O)(=O)c1cc(F)cc(F)c1)N1CCC(c2ccccc2)C(c2ccc(Cl)cc2)=N1` (single isomer, unassigned) [Compound 6 Isomer 1, N-[(E)-N′-[(Z)-C-[6-(4-chlorophenyl)-5-phenyl-4,5-dihydro-3H-pyridazin-2-yl]-N-(3,5-difluorophenyl)sulfonylcarbonimidoyl]carbamimidoyl]acetamide], the values for the EC50 in test [1] and in test [2] were 380 nM and 39 nM, respectively.

In the case of `CC(=O)N/C(N)=N/C(=N/S(=O)(=O)N1CCCCC1)N1CCC(c2ccccc2)C(c2ccc(Cl)cc2)=N1` (single isomer, unassigned) [Compound 2 Isomer 1, N-[(E)-N′-[(Z)-C-[6-(4-chlorophenyl)-5-phenyl-4,5-dihydro-3H-pyridazin-2-yl]-N-(1-piperidylsulfonyl)carbonimidoyl]carbamimidoyl]acetamide], the EC50 in test [1] was 23600 nM; in test [2], 300 nM.

For `CC(=O)N/C(N)=N/C(=N/S(=O)(=O)N1CCC(C(F)(F)F)CC1)N1CCC(c2ccccc2)C(c2ccc(Cl)cc2)=N1` (single isomer, unassigned) [Compound 3 Isomer 2, N-[(E)-N′-[(Z)-C-[6-(4-chlorophenyl)-5-phenyl-4,5-dihydro-3H-pyridazin-2-yl]-N-[[4-(trifluoromethyl)-1-piperidyl]sulfonyl]carbonimidoyl]carbamimidoyl]acetamide], the EC50 in test [1] came to 1.3 nM; in test [2] it was 0.64 nM.

In the case of `CC(=O)N/C(N)=N/C(=N/S(=O)(=O)N1CCCCC1)N1CCC(c2ccccc2)C(c2ccc(Cl)cc2)=N1` (single isomer, unassigned) [Compound 2 Isomer 2, N-[(E)-N′-[(Z)-C-[6-(4-chlorophenyl)-5-phenyl-4,5-dihydro-3H-pyridazin-2-yl]-N-(1-piperidylsulfonyl)carbonimidoyl]carbamimidoyl]acetamide], the EC50 in test [1] stood at 1.5 nM; in test [2], 0.65 nM.

Regarding `CC(=O)NC(N)=NC(=NS(=O)(=O)c1ccc(Cl)cc1)N1CCC(c2ccccc2)C(c2ccc(Cl)cc2)=N1` (single isomer, unassigned) [Compound 1 Isomer 1, N-[(E)-N′-[(Z)-C-[6-(4-chlorophenyl)-5-phenyl-4,5-dihydro-3H-pyridazin-2-yl]-N-(4-chlorophenyl)sulfonylcarbonimidoyl]carbamimidoyl]acetamide], the concentration for a half-maximal effect (EC50) is > 30000 nM in test [1] and 430 nM in test [2].

For `CC(=O)N/C(N)=N/C(=N/S(=O)(=O)N1CCC(C(F)(F)F)CC1)N1CCC(c2ccccc2)C(c2ccc(Cl)cc2)=N1` (single isomer, unassigned) [Compound 3 Isomer 1, N-[(E)-N′-[(Z)-C-[6-(4-chlorophenyl)-5-phenyl-4,5-dihydro-3H-pyridazin-2-yl]-N-[[4-(trifluoromethyl)-1-piperidyl]sulfonyl]carbonimidoyl]carbamimidoyl]acetamide], the EC50 in test [1] was 14100 nM; in test [2] it was 190 nM.

With `CC(=O)NC(N)=NC(=NS(=O)(=O)c1ccc(Cl)cc1)N1CCC(c2ccccc2)C(c2ccc(Cl)cc2)=N1` (single isomer, unassigned) [Compound 1 Isomer 2, N-[(E)-N′-[(Z)-C-[6-(4-chlorophenyl)-5-phenyl-4,5-dihydro-3H-pyridazin-2-yl]-N-(4-chlorophenyl)sulfonylcarbonimidoyl]carbamimidoyl]acetamide], the results for the 50% effective concentration (EC50) in test [1] and in test [2] were 3.3 nM and 1.2 nM, respectively.

Take `CC(=O)NC(=N)/N=C(/NS(=O)(=O)c1ccc(C(F)(F)F)cn1)N1CCC(c2ccccc2)C(c2ccc(Cl)cc2)=N1` (single isomer, unassigned) [Compound 8 Isomer 1, N-[(NE)-N-[[6-(4-chlorophenyl)-5-phenyl-4,5-dihydro-3H-pyridazin-2-yl]-[[5-(trifluoromethyl)-2-pyridyl]sulfonylamino]methylene]carbamimidoyl]acetamide]: the EC50 in test [1] and in test [2] was > 30000 nM in each case.

As to `CC(=O)NC(N)=NC(=NS(=O)(=O)c1cc(F)cc(F)c1)N1CCC(c2ccccc2)C(c2ccc(Cl)cc2)=N1` (single isomer, unassigned) [Compound 6 Isomer 2, N-[(E)-N′-[(Z)-C-[6-(4-chlorophenyl)-5-phenyl-4,5-dihydro-3H-pyridazin-2-yl]-N-(3,5-difluorophenyl)sulfonylcarbonimidoyl]carbamimidoyl]acetamide], the results for the EC50 in test [1] and in test [2] were 2.6 nM and 0.68 nM, respectively.

Turning to `CC(=O)N/C(N)=N\C(=N\S(=O)(=O)c1ccc(C(F)(F)F)cc1)N1CCC(c2ccccc2)C(c2ccc(Cl)cc2)=N1` (single isomer, unassigned) [Compound 7 Isomer 2, N-[(E)-N′-[(Z)-C-[6-(4-chlorophenyl)-5-phenyl-4,5-dihydro-3H-pyridazin-2-yl]-N-[4-(trifluoromethyl)phenyl]sulfonyl-carbonimidoyl]carbamimidoyl]acetamide], the EC50 in test [1] came to 2.1 nM; in test [2], 0.42 nM.

Turning to `CC(=O)N/C(N)=N/C(=N/S(=O)(=O)N1CCC(F)(F)CC1)N1CCC(c2ccccc2)C(c2ccc(Cl)cc2)=N1` (single isomer, unassigned) [Compound 4 Isomer 1, N-[(E)-N′-[(Z)-C-[6-(4-chlorophenyl)-5-phenyl-4,5-dihydro-3H-pyridazin-2-yl]-N-[(4,4-difluoro-1-piperidyl)sulfonyl]carbonimidoyl]carbamimidoyl]acetamide], the EC50 in test [1] and in test [2] was > 30000 nM in each case.

On to `CC(=O)NC(=N)/N=C(/NS(=O)(=O)c1ccc(C(F)(F)F)cn1)N1CCC(c2ccccc2)C(c2ccc(Cl)cc2)=N1` (single isomer, unassigned) [Compound 8 Isomer 2, N-[(NE)-N-[[6-(4-chlorophenyl)-5-phenyl-4,5-dihydro-3H-pyridazin-2-yl]-[[5-(trifluoromethyl)-2-pyridyl]sulfonylamino]methylene]carbamimidoyl]acetamide], for which the EC50 came to 8.5 nM in test [1] and 1.9 nM in test [2].

For the compound `CC(=O)N/C(N)=N/C(=N/S(=O)(=O)N1CCCC(F)(F)C1)N1CCC(c2ccccc2)C(c2ccc(Cl)cc2)=N1` (single isomer, unassigned) [Compound 5 Isomer 2, N-[(E)-N′-[(Z)-C-[6-(4-chlorophenyl)-5-phenyl-4,5-dihydro-3H-pyridazin-2-yl]-N-[(3,3-difluoro-1-piperidyl)sulfonyl]carbonimidoyl]carbamimidoyl]acetamide], the EC50 in test [1] was determined as 0.72 nM; in test [2], 0.43 nM.
